The results in this text go back to PMC3117970 (ACS chemical biology, 2011).

Read-outs that look alike come from different tables or passages of the source.

The target of one test is T1, human RAD51 (Homo sapiens, UniProt Q06609).
T1 sequence (Q06609 2-339 limits assumed): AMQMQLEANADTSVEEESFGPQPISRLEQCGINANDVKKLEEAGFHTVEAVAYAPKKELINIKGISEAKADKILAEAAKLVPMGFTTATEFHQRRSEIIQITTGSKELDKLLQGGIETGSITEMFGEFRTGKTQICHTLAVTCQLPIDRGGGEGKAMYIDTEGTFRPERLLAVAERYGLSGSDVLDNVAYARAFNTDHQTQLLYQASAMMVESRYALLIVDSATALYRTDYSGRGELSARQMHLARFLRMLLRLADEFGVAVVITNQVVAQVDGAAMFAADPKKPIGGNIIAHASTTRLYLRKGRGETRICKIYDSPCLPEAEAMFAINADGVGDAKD
As to the kind of experiment: D-loop assay for RAD51. In kind it is biochemical. The conditions noted are these: B02 derivatives 50 μM.

The target of a further test is RecA (Escherichia coli, UniProt P0A7G6).
Sequence of RecA (P0A7G6 2-353): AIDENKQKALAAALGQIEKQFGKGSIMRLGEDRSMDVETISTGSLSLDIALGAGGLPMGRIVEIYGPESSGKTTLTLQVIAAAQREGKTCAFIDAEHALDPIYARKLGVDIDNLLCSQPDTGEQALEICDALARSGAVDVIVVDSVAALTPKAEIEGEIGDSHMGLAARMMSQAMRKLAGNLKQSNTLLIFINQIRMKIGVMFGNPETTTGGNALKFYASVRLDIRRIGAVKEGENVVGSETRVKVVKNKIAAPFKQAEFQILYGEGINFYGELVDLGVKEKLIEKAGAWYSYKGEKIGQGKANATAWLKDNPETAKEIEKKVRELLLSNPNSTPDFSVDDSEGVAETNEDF
In a further test the target is T2, human RAD54 (Homo sapiens, UniProt Q92698).
T2 sequence (Q92698 1-747): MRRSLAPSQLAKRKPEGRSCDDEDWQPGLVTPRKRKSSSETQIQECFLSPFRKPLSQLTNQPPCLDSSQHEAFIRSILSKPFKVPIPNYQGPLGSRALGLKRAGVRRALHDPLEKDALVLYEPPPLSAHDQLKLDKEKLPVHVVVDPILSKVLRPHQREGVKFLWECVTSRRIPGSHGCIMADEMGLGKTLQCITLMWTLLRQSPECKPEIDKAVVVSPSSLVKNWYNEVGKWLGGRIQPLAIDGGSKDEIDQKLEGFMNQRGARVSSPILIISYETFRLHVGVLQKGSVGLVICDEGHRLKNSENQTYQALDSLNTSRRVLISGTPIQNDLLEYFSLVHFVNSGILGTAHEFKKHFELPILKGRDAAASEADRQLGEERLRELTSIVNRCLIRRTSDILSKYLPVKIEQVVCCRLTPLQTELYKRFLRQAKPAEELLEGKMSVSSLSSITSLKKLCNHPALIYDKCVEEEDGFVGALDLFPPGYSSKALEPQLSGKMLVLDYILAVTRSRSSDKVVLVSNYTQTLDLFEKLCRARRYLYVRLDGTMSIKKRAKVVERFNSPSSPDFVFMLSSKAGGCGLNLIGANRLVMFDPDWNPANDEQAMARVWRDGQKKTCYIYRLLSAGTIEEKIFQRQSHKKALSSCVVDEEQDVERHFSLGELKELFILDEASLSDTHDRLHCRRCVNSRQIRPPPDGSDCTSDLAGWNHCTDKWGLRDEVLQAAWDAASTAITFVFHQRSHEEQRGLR
In words: DNA branch migration assay for RAD54. Format: biochemical. The conditions noted are these: concentrations from 0 to 200 μM.

As for `CCn1c(C=Cc2cccnc2)nc2ccccc2c1=O` [B02-3a], at human RAD51, the “inhibitory effect on DNA strand exchange activity of RAD51 (D-loop assay)” value is “retain the inhibitory effect”. In addition, the “inhibition of RecA DNA strand exchange” value on RecA (concentrations up to 100 μM) is “do not inhibit”.

As for `O=c1c2ccccc2nc(C=Cc2cccnc2)n1-c1ccccc1` [B02-3d], the “inhibitory effect on DNA strand exchange activity of RAD51 (D-loop assay)” value against human RAD51 is recorded as “eliminates the inhibition”.

`Cc1cccc(-n2c(/C=C/c3cccnc3)nc3ccccc3c2=O)c1` [B02-3b]: the “inhibitory effect on DNA strand exchange activity of RAD51 (D-loop assay)” value on human RAD51 is “retain the inhibitory effect”. The “inhibition of RecA DNA strand exchange” value at RecA (concentrations up to 100 μM) is “do not inhibit”.

On to `O=c1c2ccccc2nc(/C=C/c2cccnc2)n1Cc1ccccc1` [B02], for which the “inhibition of RAD54 branch migration activity” value against human RAD54 is given as “did not significantly inhibit”. Besides, the IC50 on RecA (read-out: IC50 for RecA, D-loop assay, RecA 1 μM) was greater than 250 µM. Also, the “inhibition of RecA DNA strand exchange” value against RecA (up to 250 μM of compound) is “did not observe any significant inhibition”.

For the compound `Cc1ccc(-n2c(C=Cc3cccnc3)nc3ccccc3c2=O)cc1` [B02-3c], the “inhibitory effect on DNA strand exchange activity of RAD51 (D-loop assay)” value against human RAD51 is “eliminates the inhibition”.

Turning to `Cn1c(C=Cc2cccnc2)nc2ccccc2c1=O` [B02-3e], at human RAD51, the “inhibitory effect on DNA strand exchange activity of RAD51 (D-loop assay)” value is given as “eliminates the inhibition”.

In general, IC50 refers to the point on the concentration scale where inhibition reaches its midpoint.
